From patent US4016159A, “Acylamino-cephem-carboxylic acids containing an amidino or guanidino group in the molecule” (Hoechst Aktiengesellschaft, priority 1973, dated 1977)
Values after ≈ are worked out from the molar mass of the structure shown.

What was measured:
Type in all cases: cell-based
Streptococcus pyogenes A = assay: Minimum inhibition concentration (MIC), Table 3; conditions: Germ: Streptococcus pyogenes A; for MIC: read-out: Minimum inhibition concentration MIC
Excerpt: Minimum inhibition concentration MIC in γ/ml
Germ: Streptococcus pyogenes A

Proteus mirabilis = assay: Minimum inhibition concentration (MIC), Table 2; conditions: Germ: Proteus mirabilis; read-out: Minimum inhibition concentration (MIC)
Excerpt: Minimum inhibition concentration (MIC) in /ml

[1] = system: Staphylococcus aureus 285; assay: Minimum inhibition concentration (MIC), Table 1; conditions: for MIC: Staphylococcus aureus, 285, Germ: Staphylococcus aureus 285, read-out: Minimum inhibition concentration (MIC)
Excerpt: (§1) Minimum inhibition concentration (MIC) in γ/ml
Germ: Staphylococcus aureus 285

Streptococcus D = assay: Minimum inhibition concentration (MIC), Table 4; conditions: Germ: Streptococcus D; for MIC: Streptococcus, read-out: Minimum inhibition concentration (MIC)
Excerpt: as §1

[2] = system: Staphylococcus aureus SG 511; assay: Minimum inhibition concentration (MIC), Table 5; conditions: for MIC: Staphylococcus aureus, SG511, Germ: Staphylococcus aureus SG 511, read-out: Minimum inhibition concentration (MIC)
Excerpt: as §1
Germ: Staphylococcus aureus SG 511

SMILES | MIC (Streptococcus pyogenes A) [µg/mL] | MIC (Proteus mirabilis) [µg/mL] | MIC [1] [µg/mL] | MIC (Streptococcus D) [µg/mL] | MIC [2] [µg/mL] | Minimum inhibition concentration (MIC) (Streptococcus pyogenes A) [µg/mL] | Minimum inhibition concentration (MIC) ([1]; Germ: Staphylococcus aureus 285) [µg/mL] | Minimum inhibition concentration (MIC) ([2]; Germ: Staphylococcus aureus SG 511) [µg/mL] | Minimum inhibition concentration (MIC) (Streptococcus D) [µg/mL]
CCCc1nnc(SCC2=C(C(=O)O)N3C(=O)C(NC(=O)Cc4ccc(C(=N)N)cc4)C3SC2)o1 (stereo not drawn) [Example 44, 3-[(5-n-propyl-1,3,4-oxadiazole-2-yl)-thiomethyl]-7-(4-amidino-phenylacetamido)-Δ 3-cephem-4-carboxylic acid] | 0.000391 to 0.0078 (≈ 0.000757 to 0.0151 µM) | 3.1 to 12.5 (≈ 6 to 24.2 µM) | 0.156 to 0.391 (≈ 0.302 to 0.757 µM) | 10 to 50 (≈ 19.4 to 96.8 µM) | – | – | – | – | –
Cc1nnc(SCC2=C(C(=O)O)N3C(=O)C(NC(=O)Cc4ccc(C5=NCCN5)cc4)C3SC2)s1 (stereo not drawn) [Example 12, 3-[(5-methyl-1,3,4-thiadiazole-2-yl)-thiomethyl]-7-[4-(imidazoline-2-yl)-phenylacetamido]-Δ 3-cephem-4-carboxylic acid] | 0.008 to 0.0156 (≈ 0.0151 to 0.0294 µM) | 3.1 to 12.5 (≈ 5.84 to 23.6 µM) | 0.156 to 0.391 (≈ 0.294 to 0.737 µM) | 0.196 to 6.25 (≈ 0.369 to 11.8 µM) | – | – | – | – | –
O=C(Cc1ccc(C2=NCCCN2)cc1)NC1C(=O)N2C(C(=O)O)=C(CSc3nncs3)CSC12 (stereo not drawn) [Example 19, 3-[(1,3,4-thiadiazole-2-yl)-thiomethyl]-7-[4-(1,4,5,6-tetrahydropyrimide-2-yl)-phenylacetamido]-Δ 3-cephem-4-carboxylic acid] | 0.000391 to 0.0078 (≈ 0.000737 to 0.0147 µM) | 3.1 to 12.5 (≈ 5.84 to 23.6 µM) | 0.5 to 1.25 (≈ 0.942 to 2.36 µM) | 10 to 50 (≈ 18.8 to 94.2 µM) | – | – | – | – | –
CCCCCCNC(=N)c1ccc(OCC(=O)NC2C(=O)N3C(C(=O)O)=C(CSc4nnc(C)o4)CSC23)cc1 (stereo not drawn) [Example 32, 3-[(5-methyl-1,3,4-oxadiazole-2-yl)-thiomethyl]-7-[4-(N-n-hexylamidino)-phenoxyacetamido]-Δ 3-cephem-4-carboxylic acid] | 0.000391 to 0.0078 (≈ 0.000664 to 0.0132 µM) | – | 0.156 to 0.391 (≈ 0.265 to 0.664 µM) | 10 to 50 (≈ 17 to 84.9 µM) | 0.0625 to 0.078 (≈ 0.106 to 0.132 µM) | – | – | – | –
O=C(Cc1ccc(C2=NCCCN2)cc1)NC1C(=O)N2C(C(=O)O)=C(CSc3nc(-c4ccccc4)cs3)CSC12 (stereo not drawn) [Example 14, 3-[(4-phenyl-thiazole-2-yl)-thiomethyl]-7-[4-(1,4,5,6-tetrahydropyrimide-2-yl)-phenylacetamido]-Δ 3-cephem-4-carboxylic acid] | 0.008 to 0.0156 (≈ 0.0132 to 0.0258 µM) | – | 0.5 to 1.25 (≈ 0.825 to 2.06 µM) | 10 to 50 (≈ 16.5 to 82.5 µM) | 0.0625 to 0.078 (≈ 0.103 to 0.129 µM) | – | – | – | –
N=C(N)c1ccc(OCC(=O)NC2C(=O)N3C(C(=O)O)=C(CSc4nnnn4-c4ccccc4)CSC23)cc1 (stereo not drawn) [Example 31, 3-[(1-phenyl-1-H-tetrazole-5yl)-thiomethyl]-7-(4-amidinophenoxyacetamido)-Δ3-cephem-4-carboxylic acid] | 0.000391 to 0.0078 (≈ 0.00069 to 0.0138 µM) | – | 0.156 to 0.391 (≈ 0.275 to 0.69 µM) | 10 to 50 (≈ 17.6 to 88.2 µM) | 0.0196 to 0.0391 (≈ 0.0346 to 0.069 µM) | – | – | – | –
Cc1nnc(SCC2=C(C(=O)O)N3C(=O)C(NC(=O)Cc4ccc(C5=NCCCN5)cc4)C3SC2)s1 (stereo not drawn) [Example 11, 3-[(5-methyl-1,3,4-thiadiazole-2-yl)-thiomethyl]-7-[4-(1,4,5,6-tetrahydro-pyrimide-2-yl)-phenylacetamido]-Δ 3-cephem-4-carboxylic acid] | 0.008 to 0.0156 (≈ 0.0147 to 0.0286 µM) | 3.1 to 12.5 (≈ 5.69 to 22.9 µM) | 0.5 to 1.25 (≈ 0.918 to 2.29 µM) | 10 to 50 (≈ 18.4 to 91.8 µM) | – | – | – | – | –
N=C(N)c1ccc(OCC(=O)NC2C(=O)N3C(C(=O)O)=C(CSc4ccccn4)CSC23)cc1 (stereo not drawn) [Example 29, 3-[(pyride-2-yl)-thiomethyl]-7-(4-amidinophenoxyacetamido)-Δ 3-cephem-4-carboxylic acid] | 0.000391 to 0.0078 (≈ 0.000783 to 0.0156 µM) | – | 0.5 to 1.25 (≈ 1 to 2.5 µM) | 10 to 50 (≈ 20 to 100 µM) | 0.0625 to 0.078 (≈ 0.125 to 0.156 µM) | – | – | – | –

The next lines start with the values.

MIC (Streptococcus pyogenes A) [µg/mL] | MIC (Proteus mirabilis) [µg/mL] | MIC [1] [µg/mL] | MIC (Streptococcus D) [µg/mL] | MIC [2] [µg/mL] | Minimum inhibition concentration (MIC) (Streptococcus pyogenes A) [µg/mL] | Minimum inhibition concentration (MIC) ([1]; Germ: Staphylococcus aureus 285) [µg/mL] | Minimum inhibition concentration (MIC) ([2]; Germ: Staphylococcus aureus SG 511) [µg/mL] | Minimum inhibition concentration (MIC) (Streptococcus D) [µg/mL] | SMILES
0.008 to 0.0156 (≈ 0.0164 to 0.0319 µM) | 3.1 to 12.5 (≈ 6.35 to 25.6 µM) | 0.156 to 0.391 (≈ 0.319 to 0.8 µM) | 10 to 50 (≈ 20.5 to 102 µM) | – | – | – | – | – | Cn1nnnc1SCC1=C(C(=O)O)N2C(=O)C(NC(=O)Cc3ccc(C(=N)N)cc3)C2SC1 (stereo not drawn) [Example 89, 3-[(1-methyl-1H-tetrazole-5-yl)-thiomethyl]-7-[4-amidino-phenylacetamido]-Δ 3-cephem-4-carboxylic acid]
– | 25 (≈ 46.1 µM) | 0.5 to 1.25 (≈ 0.921 to 2.3 µM) | – | – | – | – | – | – | Cc1nnc(SCC2=C(C(=O)O)N3C(=O)C(NC(=O)Cc4ccc(C5=NCCCN5)cc4)C3SC2)n1N (stereo not drawn) [Example 101, 3-[(4-amino-5-methyl-1,2,4-triazole-3-yl)-thiomethyl]-7-[4-(1,4,5,6-tetrahydropyrimide-2-yl)-phenylacetamido]-Δ3-cephem-4-carboxylic acid]
0.008 to 0.0156 (≈ 0.0151 to 0.0295 µM) | 3.1 to 12.5 (≈ 5.86 to 23.6 µM) | – | – | – | – | – | – | – | Nn1cnnc1SCC1=C(C(=O)O)N2C(=O)C(NC(=O)Cc3ccc(C4=NCCCN4)cc3)C2SC1 (stereo not drawn) [Example 100, 3-[(4-amino-4H-1,2,4-triazole-3-yl)-thiomethyl]-7-[4-(1,4,5,6-tetrahydropyrimide-2-yl)-phenylacetamido]-Δ3-cephem-4-carboxylic acid]
– | – | – | – | – | 0.000391 to 0.0078 | 0.5 to 1.25 | 0.0625 to 0.078 | 10 to 50 | Cc1csc(SCC2=C(C(=O)O)N3C(=O)C(NC(=O)COc4ccc(C(=N)N)cc4)C3SC2)n1 (stereo not drawn) [Example 64, 3-[(4-methyl-1,3-thiazole-2-yl)-thiomethyl]-7-(4-amidinophenoxyacetamido)-Δ 3-cephem-4-carboxylic acid]
0.000391 to 0.0078 (≈ 0.000688 to 0.0137 µM) | – | 0.156 to 0.391 (≈ 0.274 to 0.688 µM) | 10 to 50 (≈ 17.6 to 87.9 µM) | 0.0625 to 0.078 (≈ 0.11 to 0.137 µM) | – | – | – | – | O=C(Cc1ccc(C2=NCCCN2)cc1)NC1C(=O)N2C(C(=O)O)=C(CSc3ccc([N+](=O)[O-])cn3)CSC12 (stereo not drawn) [Example 105, 3-[(5-nitropyridine-2-yl)-thiomethyl]-7-[4-(1,4,5,6-tetrahydropyrimide-2-yl)-phenylacetamido]-Δ3-cephem-4-carboxylic acid]
